The target of series [1] is T1, Receptor-type tyrosine-protein kinase FLT3 (Homo sapiens, UniProt P36888).
T1 sequence (P36888 whole entry): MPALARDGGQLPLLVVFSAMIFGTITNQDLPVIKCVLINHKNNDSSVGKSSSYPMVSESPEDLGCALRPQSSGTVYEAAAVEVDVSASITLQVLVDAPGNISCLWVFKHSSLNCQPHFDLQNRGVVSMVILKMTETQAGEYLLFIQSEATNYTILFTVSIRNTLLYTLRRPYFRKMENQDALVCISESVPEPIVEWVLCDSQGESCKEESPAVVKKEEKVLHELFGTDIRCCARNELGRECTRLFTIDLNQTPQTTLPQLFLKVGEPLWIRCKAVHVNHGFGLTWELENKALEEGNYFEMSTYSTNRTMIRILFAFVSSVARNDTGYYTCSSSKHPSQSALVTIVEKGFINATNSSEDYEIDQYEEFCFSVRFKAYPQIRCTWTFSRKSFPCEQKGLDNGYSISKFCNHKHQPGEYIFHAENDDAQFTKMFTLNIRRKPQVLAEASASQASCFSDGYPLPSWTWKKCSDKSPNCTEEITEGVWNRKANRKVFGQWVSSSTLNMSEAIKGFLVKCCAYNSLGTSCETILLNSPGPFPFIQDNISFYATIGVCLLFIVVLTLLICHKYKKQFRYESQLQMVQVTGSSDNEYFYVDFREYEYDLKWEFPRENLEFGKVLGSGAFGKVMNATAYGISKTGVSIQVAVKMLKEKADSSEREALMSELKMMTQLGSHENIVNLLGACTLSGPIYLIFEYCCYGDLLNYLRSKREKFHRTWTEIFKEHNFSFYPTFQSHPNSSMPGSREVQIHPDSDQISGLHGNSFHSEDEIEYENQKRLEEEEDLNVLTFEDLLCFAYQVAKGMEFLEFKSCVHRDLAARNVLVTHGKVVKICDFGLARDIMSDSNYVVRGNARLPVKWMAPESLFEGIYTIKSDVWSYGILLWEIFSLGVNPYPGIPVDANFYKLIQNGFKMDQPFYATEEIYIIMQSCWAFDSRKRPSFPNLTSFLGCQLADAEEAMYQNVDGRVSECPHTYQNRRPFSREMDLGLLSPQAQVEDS

Series [2] can be described thus: Elimination half-life in Sprague-Dawley rat at 5 mg/kg, po by LC-MS/MS analysis. The format is ADME, organism-based. Particulars: in vivo, read-out: beta t1/2 (converted).
The subject of series [3] is MV4-11. The series is described as follows: Inhibition of MAPK in human MV4-11 cells assessed as ratio of phosphorylated ERK to beta-actin level at 100 nM after 2 hrs by Western blot analysis relative to control. The format is cell-based. (In general: In western blotting, separated proteins are transferred to a membrane and probed.)
In series [4] the test system is MV4-11. The series is described as follows: Antitumour activity against human MV4-11 cells xenografted in NOD/SCID mouse assessed as tumour growth inhibition at 1 mg/kg, po qd for 14 days measured every two days during compound dosing by caliper method relative to control. The class given is functional. Particulars: MV4-11, po, read-out: TGI. For orientation: A xenograft is tissue or cells of one species grown in another, often human tumour cells in immunodeficient mice.

Series [5] has as its system MV4-11. The series is described as follows: Antitumour activity against human MV4-11 cells xenografted in NOD/SCID mouse assessed as tumour growth inhibition at 10 mg/kg, po qd for 18 days measured every two days during compound dosing by caliper method relative to control. The class given is functional. Particulars: MV4-11, po, read-out: TGI.
Series [6] concerns MOLM-13. The series is described as follows: Antitumour activity against human MOLM13 cells xenografted in NOD/SCID mouse assessed as tumour growth inibition at 10 mg/kg, po qd for 10 days measured every two days during compound dosing by caliper method relative to control. The class given is functional. The following applies: MOLM-13, po, read-out: TGI.
Series [7] concerns MOLM-13. The series is described as follows: Cell cycle arrest in human MOLM13 cells assessed as accumulation at G0/G1 phase at 1 nM after 24 hrs by propidium iodide staining-based flow cytometric analysis (reference value: 44.53%). The format is functional. (Flow cytometry measures light scatter and fluorescence of single cells or particles in a stream.)
Series [8] relates to MOLM-13. The series is described as follows: Cell cycle arrest in human MOLM13 cells assessed as accumulation at G2/M phase at 1 nM after 24 hrs by propidium iodide staining-based flow cytometric analysis (reference value: 13.52%). The class given is functional.
Series [9] has as its system MOLM-13. The series is described as follows: Cell cycle arrest in human MOLM13 cells assessed as accumulation at S phase at 1 nM after 24 hrs by propidium iodide staining-based flow cytometric analysis (reference value: 41.95%). The format is functional.
In series [10] the test system is MOLM-13. The series is described as follows: Induction of apoptosis in human MOLM13 cells assessed as viable cells at 1 nM after 48 hrs by Annexin V/propidium iodide staining based flow cytometry (reference value: 88.2%). The class given is functional. Particulars: MOLM-13, 48 h, read-out: Activity.
Series [11] relates to MOLM-13. The series is described as follows: Induction of apoptosis in human MOLM13 cells assessed as late apoptotic cells at 1 nM after 48 hrs by Annexin V/propidium iodide staining based flow cytometry (reference value: 5.52%). The class given is functional.
In series [12] the test system is MOLM-13. The series is described as follows: Cell cycle arrest in human MOLM13 cells assessed as accumulation at G0/G1 phase at 30 nM after 24 hrs by propidium iodide staining-based flow cytometric analysis (reference value: 44.53%). The format is functional.
In series [13] the test system is MOLM-13. The series is described as follows: Induction of apoptosis in human MOLM13 cells assessed as viable cells at 10 nM after 48 hrs by Annexin V/propidium iodide staining based flow cytometry (reference value: 88.2%). The format is functional. Particulars: MOLM-13, 48 h, read-out: Activity.
Series [14] relates to MOLM-13. The series is described as follows: Induction of apoptosis in human MOLM13 cells assessed as late apoptotic cells at 10 nM after 48 hrs by Annexin V/propidium iodide staining based flow cytometry (reference value: 5.52%). The format is functional.
The test system of series [15] is MOLM-13. The series is described as follows: Induction of apoptosis in human MOLM13 cells assessed as viable cells at 100 nM after 48 hrs by Annexin V/propidium iodide staining based flow cytometry (reference value: 88.2%). The class given is functional. The following applies: MOLM-13, 48 h, read-out: Activity.
The test system of series [16] is MOLM-13. The series is described as follows: Induction of apoptosis in human MOLM13 cells assessed as early apoptotic cells at 1 uM after 48 hrs by Annexin V/propidium iodide staining based flow cytometry (reference value: 5.97%). The format is functional.
Series [17] concerns MOLM-13. The series is described as follows: Induction of apoptosis in human MOLM13 cells assessed as early apoptotic cells at 10 uM after 48 hrs by Annexin V/propidium iodide staining based flow cytometry (reference value: 5.97%). The format is functional.
Series [18] relates to MV4-11. The series is described as follows: Induction of apoptosis in human MV4-11 cells assessed as late apoptotic cells at 10 nM after 48 hrs by Annexin V/propidium iodide staining based flow cytometry (reference value: 2.83%). The format is functional.
For series [19], the system named is MV4-11. The series is described as follows: Induction of apoptosis in human MV4-11 cells assessed as viable cells at 100 nM after 48 hrs by Annexin V/propidium iodide staining based flow cytometry (reference value: 94.4%). The class given is functional. Particulars: MV4-11, 48 h, read-out: Activity.
Series [20] deals with MV4-11. The series is described as follows: Induction of apoptosis in human MV4-11 cells assessed as necrotic cells at 100 nM after 48 hrs by Annexin V/propidium iodide staining based flow cytometry (reference value: 0.06%). The class given is functional.
Series [21] deals with MV4-11. The series is described as follows: Induction of apoptosis in human MV4-11 cells assessed as necrotic cells at 10 uM after 48 hrs by Annexin V/propidium iodide staining based flow cytometry (reference value: 0.06%). The format is functional.
Series [22] is described as follows: Toxicity in NOD/SCID mouse xenografted with human MOLM13 cells at 1 to 10 mg/kg, po qd for 10 days. The class given is organism-based. Particulars: in vivo, 240 h.
The test system of series [23] is MV4-11. The series is described as follows: Antitumour activity against human MV4-11 cells xenografted in NOD/SCID mouse assessed as tumour growth inhibition at 10 mg/kg, po qd for 18 days measured on day 24 by caliper method. The class given is functional, organism-based.
Series [24] deals with BaF3. The series is described as follows: cells. The following applies: Mus musculus, BaF3, 72 h.
Description: Antiproliferative activity against mouse BAF3 cells harboring FLT3-ITD mutant measured after 72 hrs by MTT assay

Activity calls are given as the source filed them. The calls are words filed in the database; no cut-off is given here.

As usually defined, the IC50 is the concentration needed to halve the response being measured.

For `C=CCn1cc(-c2ccc(NC(=O)Nc3cc(C(C)(C)C)on3)cc2)c2c(N)ncnc21`, the results for the IC50 in series [1] and in series [24] were 7 nM and 0.92 nM, respectively. Further, the half-life in series [2] was 2.06 h. The fold change (FC) in series [3] amounted to 0. In series [4], the inhibition in vivo at 1 mg/kg turned out to be 70.5%. Further, the inhibition in vivo at 10 mg/kg turned out to be 100% in [5] and 96% in series [6]. Also, the Activity was found to be 53.77% in series [7]; 11% in [8]; 35.23% in [9]; 8.57% in [11]; 94.68% in [12]; 18.3% in [14]. Moreover, the Activity in series [16] is 23.5%; in [17] it was 0.61%; in series [18] it was 11%; in series [20], 0.36%; in [21], 2.13%; in series [22], “Non-Toxic”. Besides, the viability at 0.001 µM in [10] was 85%. Further, the viability at 0.01 µM in [13] was determined as 66.1%. Further, the viability at 0.1 µM in series [15] was 62.8%; in series [19], 75.7%. The TGI entry in series [23] was “inactive”.

The values are drawn from ChEMBL document CHEMBL4385604, “Identification of Pyrrolo[2,3- d]pyrimidine-Based Derivatives as Potent and Orally Effective Fms-like Tyrosine Receptor Kinase 3 (FLT3) Inhibitors for Treating Acute Myelogenous Leukemia” (J Med Chem, 2019).
